Patent US12186329B2 (President and Fellows of Harvard College, priority 2018, dated 2025)
Like-named read-outs stand apart in the source and are kept apart here.

Tests used:
[1] = test system: human intestinal L-cells (NCI-H716); experiment: GLP-1 secretion in human intestinal L-cells (NCI-H716); type: cell-based; conditions: for GLP-1 secretion in vitro: NCI-H716 L-cells, 2 hours; for GLP-1 secretion in vitro by CA7S extracted from cecal contents of SG mice: material extracted from mouse cecum
NCI-H716 cells = experiment: Calcium measurement in NCI-H716 cells; type: cell-based, human
Protocol: The cells were allowed to grow for 2 days in complete RPMI media. […] The concentration of DMSO was kept constant throughout the treatments and used as a negative control. Cells were incubated at 37° C. in an atmosphere of 5% CO2 for 2 hours. […] Cells on cell culture plates were placed on ice and gently washed with PBS (GenClone).

Caco-2 cells = experiment: Cell viability assay in Caco-2 cells; type: cell-based, human; conditions: overnight incubation
Protocol: Cell viability assay. […] The concentration of DMSO was kept constant and used as a negative control. […] Cell viability was measured in Countess II automated cell counter (Invitrogen). Percentage relative viability was calculated compared to DMSO control.

pH stability test = type: physicochemical; conditions: pH 1, 7.4 and 9, overnight at 37° C.
Protocol: pH stability test. […] Briefly, buffers of pH 1 (0.1 M HCl), pH 7.4 (PBS) and pH 9 (a 10 mM solution of ammonium formate adjusted to pH 9 with ammonium hydroxide) (all from Sigma) were prepared.

DIO mice [2] = experiment: In vivo enteral (duodenal and rectal) treatment of DIO mice: glucose, GLP-1, insulin, TGR5 expression; set-up: species or system mouse; conditions: for Systemic GLP-1 levels: within 15 min
DIO mice [3] = experiment: In vivo CA7S oral gavage: systemic GLP-1; set-up: species or system mouse; conditions: oral gavage 100 mg/kg, 5 hours post-treatment, vs PBS
DIO mice [4] = experiment: In vivo CA7S gavage and oral glucose tolerance test (OGTT); set-up: species or system mouse; conditions: gavage 100 mg/kg, vs vehicle
Protocol: (§1) Age matched, […] mice were kept on HFD and their blood glucose levels were monitored until average fasting glucose levels were >160 mg/dL. Animals were fasted for 4 hours on the day of the experiment. […] Three hours later, an OGTT was performed using an oral gavage of 2 mg/g oral D-glucose (Sigma-Aldrich, St. Louis, Mo.). Blood glucose levels were measured at baseline and at minutes 15, 30, 60 and 120 with a OneTouch glucometer.

DIO mice [5] = experiment: CA7S gavage and OGTT after lentiviral shRNA knockdown of GLP-1R; type: in vivo, mouse; conditions: GLP-1R shRNA knockdown, gavage 100 mg/kg, vs PBS
Protocol: as §1

[6] = In vivo CA7S oral gavage: CA7S concentration in tissues and blood
Protocol: Extraction. Cecal, liver, and human fecal samples (approximately 50 mg each) and mouse portal veins were pre-weighed in lysis tubes containing ceramic beads (Precellys lysing kit tough micro-organism lysing VK05 tubes for cecal, fecal samples, and portal veins; tissue homogenizing CIKMix tubes for liver samples; Bertin technologies, Montigny-le-Bretonneux, France). 400p L of methanol containing 10 μM internal standard (GCA) was added and the tubes were homogenized in a MagNA Lyser (6000 speed for 90 s*2, 7000 speed for 60 s). 50 μl of mouse serum was collected in Eppendorf tubes, followed by addition of 50 μL of methanol containing 10 μM internal standard (GCA). After vortexing for 1 min, the sample was cooled to −20° C. for 20 min. All methanol-extracted tissue samples were centrifuged at 4° C. for 30 min at 15,000 rpm. […]
UPLC-MS. […] Samples were analyzed using an Agilent Technologies 12990 Infinity 11 UPLC system coupled online to an Agilent Technologies 6120 Quadrupole LC/MS spectrometer in negative electrospray mode with a scan range of 350-550 m/z (MSD settings: fragmentor—250, gain—3.00, threshold—150, Step size—0.10, speed (u/sec)—743). […] For quantification of the analytes, standard curves were obtained using known bile acids, and then each analyte was quantified based on the standard curve and normalized based on the internal standard. […]

[7] = CA7S concentration in tissues and blood after enteral CA7S (UPLC-MS bile acid analysis)
[8] = listed as Cholic acid-7-sulfate

C[C@H](CCC(=O)NCCS(=O)(=O)O)[C@H]1CC[C@H]2[C@@H]3CC[C@@H]4C[C@H](O)CC[C@]4(C)[C@H]3C[C@H](O)[C@]12C [TDCA, taurodeoxycholic acid, reference compound]
GLP-1 secretion after siRNA-mediated knockdown of TGR5 ([1]; NCI-H716, TGR5 siRNA): abolished

C[C@H](CCC(=O)O)[C@H]1CC[C@H]2[C@@H]3[C@H](OS(=O)(=O)O)C[C@@H]4C[C@H](O)CC[C@]4(C)[C@H]3C[C@H](O)[C@]12C [CA7S, cholic acid-7-sulfate]
GLP-1 secretion after siRNA-mediated knockdown of TGR5 [1]: abolished GLP-1 secretion
GLP-1 secretion in vitro [1]: to a similar degree as TDCA in a dose-dependent manner
GLP-1 secretion in vitro [1, 8]: induces GLP-1 secretion in vitro better than the known GLP-1 inducer TDCA
GLP-1 secretion in vitro by CA7S extracted from cecal contents of SG mice [1]: also induced GLP-1 secretion in vitro
GLP-1 secretion in vitro by CA7S extracted from cecal contents of SG mice ([1]; listed as cholic acid-7-sulfate): exhibit activity inducing GLP-1 secretion in vitro
Calcium levels in L-cells (NCI-H716 cells): dose-dependent increase in calcium levels
Calcium levels in L-cells (NCI-H716 cells; [8]): increased calcium levels
Toxicity in intestinal Caco cells (Caco-2 cells): no toxicity
Stability at different pHs (pH stability test): stable in a wide range of pHs
Insulin levels (DIO mice [2]; DIO mice, enteral, vs PBS): increased insulin levels
TGR5 expression in colon and terminal ileum (DIO mice [2]; DIO mice, enteral CA7S): increased in the colon, but not the terminal ileum
Blood glucose levels (DIO mice [2]; HFD-fed DIO mice, enteral 1 mg, 15 min, vs PBS): reduced blood glucose levels
Systemic GLP-1 levels (DIO mice [2]; HFD-fed DIO mice, enteral 1 mg, vs PBS): increased systemic GLP-1 levels
Systemic GLP-1 levels (DIO mice [2]; HFD-fed DIO mice, enteral 1 mg, vs PBS, listed as cholic acid-7-sulfate): induced GLP-1 levels
Systemic levels of GLP-1 (DIO mice [3]): increased
Total and incremental areas under the glucose versus time curves (AUC and iAUC) (DIO mice [4]): significantly decreased
Glycemic curves and AUCs in OGTT in the absence of GLP-1R (DIO mice [5]): no significant differences in the glycemic curves or AUCs
CA7S concentration (mean ± SEM), portal vein ([6]; DIO mice, CA7S gavage 100 mg/kg, 5 hours): 13.2 ± 7.7 pmol/µL
CA7S accumulation in cecal contents (mean value) ([6]; oral gavage 100 mg/kg, 5 hours post-gavage): 15,000 picomol/mg wet mass
CA7S concentration (mean ± SEM), cecum ([7]; DIO mice, enteral CA7S): 2577 ± 185 pmol/mg
CA7S concentration (mean ± SEM), portal vein ([7]; DIO mice, enteral CA7S): 6.13 ± 2.11 pmol/mg
CA7S concentration (mean ± SEM), systemic blood ([7]; DIO mice, enteral CA7S): 0.5 ± 0.2 pmol/µL
CA7S in cecal contents (average) ([7]; administration of 1 mg via duodenal and rectal catheters): 2500 pmol/mg wet mass
cholic acid-7-sulfate in the cecum ([7]; dosing with 1 mg): ~2500 µM
Leak into systemic circulation and portal vein ([7]; ectopic (enteral) introduction): only minor amounts to leak into systemic circulation and in the portal vein

C[C@H](CCC(=O)O)[C@H]1CC[C@H]2[C@@H]3[C@H](O)C[C@@H]4C[C@H](O)CC[C@]4(C)[C@H]3C[C@H](O)[C@]12C [CA, cholic acid, reference compound]
GLP-1 secretion in vitro [1]: had no effect on GLP-1 secretion
GLP-1 secretion in vitro ([1]; listed as cholic acid): had no effect
